Molecular target: T1, chimeric human H3 receptor (Homo sapiens, UniProt Q9Y5N1, E19D)
T1 construct: made in house; host or cells: Sf9 insect cells (baculovirus infection); P2 membrane preparation
Test: Chimeric human H3 receptor GTP binding assay (agonist-stimulated GTP-gamma35S binding, Example 7)
Format: biochemical
Conditions: assay of Example 7; "*" in Ki of Table II; read-out: Ki
In short: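 IC50 values come from non-linear regression of dose-response curves of filter-bound GTP-gamma^35S, counted by scintillation. Membranes were from infected Sf9 cells carrying receptor plus G-protein subunits, 35 μg/tube, with 10 μM GDP present.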

T1 sequence (Q9Y5N1 with tags, fused parts or gaps E19D): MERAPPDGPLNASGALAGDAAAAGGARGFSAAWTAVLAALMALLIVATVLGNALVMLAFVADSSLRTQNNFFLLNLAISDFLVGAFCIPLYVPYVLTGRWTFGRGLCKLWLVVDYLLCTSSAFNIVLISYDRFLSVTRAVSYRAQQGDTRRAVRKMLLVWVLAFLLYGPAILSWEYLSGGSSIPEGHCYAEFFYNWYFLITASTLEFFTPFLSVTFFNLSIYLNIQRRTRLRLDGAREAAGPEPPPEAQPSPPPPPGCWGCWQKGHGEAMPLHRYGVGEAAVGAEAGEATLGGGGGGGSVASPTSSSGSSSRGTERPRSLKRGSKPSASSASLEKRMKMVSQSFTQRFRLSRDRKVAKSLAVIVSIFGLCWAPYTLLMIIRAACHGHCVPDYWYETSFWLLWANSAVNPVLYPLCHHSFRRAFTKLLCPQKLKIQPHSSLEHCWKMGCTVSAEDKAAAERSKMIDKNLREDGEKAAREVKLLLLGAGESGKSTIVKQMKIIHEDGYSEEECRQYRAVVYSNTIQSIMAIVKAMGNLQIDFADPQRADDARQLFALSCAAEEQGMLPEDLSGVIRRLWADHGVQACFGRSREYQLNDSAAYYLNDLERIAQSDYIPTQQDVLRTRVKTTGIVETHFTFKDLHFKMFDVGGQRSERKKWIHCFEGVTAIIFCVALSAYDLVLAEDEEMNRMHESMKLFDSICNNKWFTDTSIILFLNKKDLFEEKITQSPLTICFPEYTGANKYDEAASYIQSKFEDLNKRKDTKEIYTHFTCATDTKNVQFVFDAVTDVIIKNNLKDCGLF

| Ki | Structure (SMILES) |
| --- | --- |
| < 1000 nM | CCOC(=O)c1ccc(-c2ccc(N3CCN(CC(=O)N4CCN(C5CCC5)CC4)CC3)nn2)cc1 [Compound 1198, ethyl 4-(6-{4-[2-(4-cyclobutylpiperazin-1-yl)-2-oxoethyl]piperazin-1-yl}pyridazin-3-yl)benzoate] |
| < 1000 nM | CCOC(=O)c1ccc(-c2ccc(N3CCN(CC(=O)N4CCN(C5CCC5)CC4)CC3)cc2)cc1 [Compound 1199, ethyl 4′-{4-[2-(4-cyclobutylpiperazin-1-yl)-2-oxoethyl]piperazin-1-yl}biphenyl-4-carboxylate] |
| < 1000 nM | CCOC(=O)c1cccc(-c2ccc(N3CCN(CC(=O)N4CCN(C5CCC5)CC4)CC3)cc2)c1 [Compound 1200, ethyl 4′-{4-[2-(4-cyclobutylpiperazin-1-yl)-2-oxoethyl]piperazin-1-yl}biphenyl-3-carboxylate] |
| < 1000 nM | CCOC(=O)c1ccc(N2CCN(CC(=O)N3CCN(C4CCC4)CC3)CC2)cc1 [Compound 1201, ethyl 4-{4-[2-(4-cyclobutylpiperazin-1-yl)-2-oxoethyl]piperazin-1-yl}benzoate] |
| < 1000 nM | COC(=O)c1ccc(N2CCN(CC(=O)N3CCN(C4CCC4)CC3)CC2)nc1 [Compound 1202, methyl 6-{4-[2-(4-cyclobutylpiperazin-1-yl)-2-oxoethyl]piperazin-1-yl}nicotinate] |
| < 1000 nM | CCC(C)NC(=O)c1cccc(N2CCN(CC(=O)N3CCN(C4CCC4)CC3)CC2)c1 (centres unmarked) [Compound 1203, N-(sec-butyl)-3-{4-[2-(4-cyclobutylpiperazin-1-yl)-2-oxoethyl]piperazin-1-yl}benzamide] |
| < 1000 nM | CCC(C)NC(=O)c1ccc(N2CCN(CC(=O)N3CCN(C4CCC4)CC3)CC2)cc1 (centres unmarked) [Compound 1204, N-(sec-butyl)-4-{4-[2-(4-cyclobutylpiperazin-1-yl)-2-oxoethyl]piperazin-1-yl}benzamide] |
| < 1000 nM | CCC(C)NC(=O)c1ccc(N2CCN(CC(=O)N3CCN(C4CCC4)CC3)CC2)nc1 (centres unmarked) [Compound 1205, N-(sec-butyl)-6-{4-[2-(4-cyclobutylpiperazin-1-yl)-2-oxoethyl]piperazin-1-yl}nicotinamide] |
| < 1000 nM | CCN(CC)C1CCN(CC(=O)N2CCN(C(C)C)CC2)C1 (centres unmarked) [Compound 1206, N,N-diethyl-1-[2-(4-isopropylpiperazin-1-yl)-2-oxoethyl]pyrrolidin-3-amine] |
| < 1000 nM | O=C(CC1CCCC1)NC1CCN(CC(=O)N2CCN(C3CCC3)CC2)CC1 [Compound 1208, N-{1-[2-(4-cyclobutylpiperazin-1-yl)-2-oxoethyl]piperidin-4-yl}-2-cyclopentylacetamide] |
| < 1000 nM | O=C(CC1CCCCC1)NC1CCN(CC(=O)N2CCN(C3CCC3)CC2)CC1 [Compound 1209, N-{1-[2-(4-cyclobutylpiperazin-1-yl)-2-oxoethyl]piperidin-4-yl}-2-cyclohexylacetamide] |
| < 1000 nM | CCCC(C)C(=O)NC1CCN(CC(=O)N2CCN(C3CCC3)CC2)CC1 (centres unmarked) [Compound 1210, N-{1-[2-(4-cyclobutylpiperazin-1-yl)-2-oxoethyl]piperidin-4-yl}-2-methylpentanamide] |
| < 1000 nM | Cc1cc(C)cc(C(=O)NC2CCN(CC(=O)N3CCN(C4CCC4)CC3)CC2)c1 [Compound 1211, N-{1-[2-(4-cyclobutylpiperazin-1-yl)-2-oxoethyl]piperidin-4-yl}-3,5-dimethylbenzamide] |
| < 1000 nM | Cc1ccc(C(=O)NC2CCN(CC(=O)N3CCN(C4CCC4)CC3)CC2)cc1C [Compound 1212, N-{1-[2-(4-cyclobutylpiperazin-1-yl)-2-oxoethyl]piperidin-4-yl}-3,4-dimethylbenzamide] |
| < 1000 nM | CCOc1cccc(C(=O)NC2CCN(CC(=O)N3CCN(C4CCC4)CC3)CC2)c1 [Compound 1213, N-{1-[2-(4-cyclobutylpiperazin-1-yl)-2-oxoethyl]piperidin-4-yl}-3-ethoxybenzamide] |
| < 1000 nM | COc1ccc(C(=O)NC2CCN(CC(=O)N3CCN(C4CCC4)CC3)CC2)cc1F [Compound 1214, N-{1-[2-(4-cyclobutylpiperazin-1-yl)-2-oxoethyl]piperidin-4-yl}-3-fluoro-4-methoxybenzamide] |
| < 1000 nM | O=C(CCC1CCCC1)NC1CCN(CC(=O)N2CCN(C3CCC3)CC2)CC1 [Compound 1215, N-{1-[2-(4-cyclobutylpiperazin-1-yl)-2-oxoethyl]piperidin-4-yl}-cyclopentylpropanamide] |
| < 1000 nM | CC(C)(C)CC(=O)NC1CCN(CC(=O)N2CCN(C3CCC3)CC2)CC1 [Compound 1216, N-{1-[2-(4-cyclobutylpiperazin-1-yl)-2-oxoethyl]piperidin-4-yl}-3,3-dimethylbutanamide] |
| < 1000 nM | Cc1ccc(C(=O)NC2CCN(CC(=O)N3CCN(C4CCC4)CC3)CC2)cc1 [Compound 1217, N-{1-[2-(4-cyclobutylpiperazin-1-yl)-2-oxoethyl]piperidin-4-yl}-4-methylbenzamide] |
| < 1000 nM | CCCc1ccc(C(=O)NC2CCN(CC(=O)N3CCN(C4CCC4)CC3)CC2)cc1 [Compound 1218, N-{1-[2-(4-cyclobutylpiperazin-1-yl)-2-oxoethyl]piperidin-4-yl}-4-propylbenzamide] |
| < 1000 nM | CC(C)c1ccc(C(=O)NC2CCN(CC(=O)N3CCN(C4CCC4)CC3)CC2)cc1 [Compound 1219, N-{1-[2-(4-cyclobutylpiperazin-1-yl)-2-oxoethyl]piperidin-4-yl}-4-isopropylbenzamide] |
| < 1000 nM | CCOc1ccc(C(=O)NC2CCN(CC(=O)N3CCN(C4CCC4)CC3)CC2)cc1 [Compound 1221, N-{1-[2-(4-cyclobutylpiperazin-1-yl)-2-oxoethyl]piperidin-4-yl}-4-ethoxybenzamide] |
| < 1000 nM | CSc1ccc(C(=O)NC2CCN(CC(=O)N3CCN(C4CCC4)CC3)CC2)cc1 [Compound 1222, N-{1-[2-(4-cyclobutylpiperazin-1-yl)-2-oxoethyl]piperidin-4-yl}-4-(methylthio)benzamide] |
| < 1000 nM | CCSc1ccc(C(=O)NC2CCN(CC(=O)N3CCN(C4CCC4)CC3)CC2)cc1 [Compound 1223, N-{1-[2-(4-cyclobutylpiperazin-1-yl)-2-oxoethyl]piperidin-4-yl}-4-(ethylthio)benzamide] |
| < 1000 nM | O=C(NC1CCN(CC(=O)N2CCN(C3CCC3)CC2)CC1)c1ccc(Oc2ccccc2)cc1 [Compound 1224, N-{1-[2-(4-cyclobutylpiperazin-1-yl)-2-oxoethyl]piperidin-4-yl}-4-phenoxybenzamide] |
| < 1000 nM | O=C(NC1CCN(CC(=O)N2CCN(C3CCC3)CC2)CC1)c1ccccc1 [Compound 1225, N-{1-[2-(4-cyclobutylpiperazin-1-yl)-2-oxoethyl]piperidin-4-yl}benzamide] |
| < 1000 nM | O=C(NC1CCN(CC(=O)N2CCN(C3CCC3)CC2)CC1)C1CC2CCC1C2 (centres unmarked) [Compound 1226, N-{1-[2-(4-cyclobutylpiperazin-1-yl)-2-oxoethyl]piperidin-4-yl}bicyclo[2.2.1]heptane-2-carboxamide] |
| < 1000 nM | O=C(NC1CCN(CC(=O)N2CCN(C3CCC3)CC2)CC1)C1CCCCC1 [Compound 1227, N-{1-[2-(4-cyclobutylpiperazin-1-yl)-2-oxoethyl]piperidin-4-yl} cyclohexanecarboxamide] |
| < 1000 nM | O=C(NC1CCN(CC(=O)N2CCN(C3CCC3)CC2)CC1)C1CCCCCC1 [Compound 1228, N-{1-[2-(4-cyclobutylpiperazin-1-yl)-2-oxoethyl]piperidin-4-yl} cycloheptanecarboxamide] |

— patent US7851474B2, “Dipiperazinyl ketones and related analogues” (Neurogen Corporation, priority 2005, dated 2010)
